Test results published in ChEMBL document CHEMBL2073847, “Inhibition of the CYP3A4-mediated metabolism and P-glycoprotein-mediated transport of the HIV-1 protease inhibitor saquinavir by grapefruit juice components” (Br J Clin Pharmacol, 1999).

How the values were obtained:
[1] = biological target: T1, ATP-dependent translocase ABCB1 (Homo sapiens, UniProt P08183); assay: TP_TRANSPORTER: inhibition of Saquinavir transepithelial transport (basal to apical) in Caco-2 cells; format: functional, cell-based
T1 sequence (P08183 whole entry): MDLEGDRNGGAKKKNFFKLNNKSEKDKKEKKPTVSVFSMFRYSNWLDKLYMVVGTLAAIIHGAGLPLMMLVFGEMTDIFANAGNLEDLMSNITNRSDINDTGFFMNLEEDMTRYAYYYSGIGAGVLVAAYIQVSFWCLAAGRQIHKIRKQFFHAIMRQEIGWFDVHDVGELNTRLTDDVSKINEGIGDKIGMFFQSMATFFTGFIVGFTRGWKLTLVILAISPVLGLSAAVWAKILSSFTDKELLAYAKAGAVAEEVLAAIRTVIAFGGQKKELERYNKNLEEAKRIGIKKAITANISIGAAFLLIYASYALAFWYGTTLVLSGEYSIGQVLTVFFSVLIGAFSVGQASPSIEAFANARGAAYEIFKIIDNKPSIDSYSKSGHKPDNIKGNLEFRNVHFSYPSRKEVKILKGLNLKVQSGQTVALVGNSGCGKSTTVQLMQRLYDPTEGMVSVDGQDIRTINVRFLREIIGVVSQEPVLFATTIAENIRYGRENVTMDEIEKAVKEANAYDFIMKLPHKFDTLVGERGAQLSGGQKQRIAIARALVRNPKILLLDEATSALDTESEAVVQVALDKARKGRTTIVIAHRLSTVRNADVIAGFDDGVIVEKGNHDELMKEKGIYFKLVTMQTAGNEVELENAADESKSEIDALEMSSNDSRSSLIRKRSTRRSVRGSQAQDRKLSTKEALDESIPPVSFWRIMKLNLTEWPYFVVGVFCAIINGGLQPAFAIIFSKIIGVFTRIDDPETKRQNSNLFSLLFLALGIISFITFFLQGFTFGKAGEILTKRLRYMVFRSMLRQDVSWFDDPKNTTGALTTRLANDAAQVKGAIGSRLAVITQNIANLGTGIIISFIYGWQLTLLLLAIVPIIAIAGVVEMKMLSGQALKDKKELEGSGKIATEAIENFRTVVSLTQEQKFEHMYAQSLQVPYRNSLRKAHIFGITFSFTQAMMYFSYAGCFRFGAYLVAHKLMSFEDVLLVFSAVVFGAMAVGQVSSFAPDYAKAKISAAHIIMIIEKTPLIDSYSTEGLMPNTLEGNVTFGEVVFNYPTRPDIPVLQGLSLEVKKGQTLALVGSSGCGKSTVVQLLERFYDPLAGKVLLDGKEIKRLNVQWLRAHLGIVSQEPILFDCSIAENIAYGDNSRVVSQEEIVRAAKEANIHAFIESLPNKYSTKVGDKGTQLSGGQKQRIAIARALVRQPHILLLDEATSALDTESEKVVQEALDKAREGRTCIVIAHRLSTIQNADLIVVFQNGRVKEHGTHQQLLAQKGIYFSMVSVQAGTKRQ

[2] = biological target: T1, ATP-dependent translocase ABCB1; assay: TP_TRANSPORTER: transepithelial transport (basal to apical) in Caco-2 cells; format: functional, cell-based

Row | Activity [1] | Activity [2] | Structure (SMILES)
1 | is not an inhibitor [-] |  | C/C(=C\COc1c2ccoc2cc2oc(=O)ccc12)CC[C@@H](O)C(C)(C)O
2 | is not an inhibitor [-] |  | CC(C)=CCC/C(C)=C/COc1c2ccoc2cc2oc(=O)ccc12 [BERGAMOTTIN]
3 | inhibitor [+] |  | C[C@@H]1O[C@@H](O[C@H]2[C@H](Oc3cc(O)c4c(c3)O[C@H](c3ccc(O)cc3)CC4=O)O[C@H](CO)[C@@H](O)[C@@H]2O)[C@H](O)[C@H](O)[C@H]1O [NARINGIN]
4 |  | substrate [+] | CC(C)(C)NC(=O)[C@@H]1C[C@@H]2CCCC[C@@H]2CN1C[C@@H](O)[C@H](Cc1ccccc1)NC(=O)[C@H](CC(N)=O)NC(=O)c1ccc2ccccc2n1 [SAQUINAVIR]

Row | Structure (SMILES) | Activity [1] | Activity [2]
5 | O=C1C[C@@H](c2ccc(O)cc2)Oc2cc(O)cc(O)c21 [NARINGENIN] | inhibitor [+] | 
